Test results reported in patent US20230138327A1, “COMPOSITIONS AND METHODS CONTAINING REDUCED NICOTINAMIDE RIBOSIDE FOR PREVENTION AND TREATMENT OF PANCREATIC DISEASES AND CONDITIONS” (SOCIETE DES PRODUITS NESTLE S.A., priority 2020, published 2023).
Entries after “also recorded” stand apart in the source; their conditions may differ.

Assays:
[1] = Stability in water; type: physicochemical; conditions: pH=7, at room temperature
Description: NR degradation to NAM has been proposed as a limitation for its pharmacological efficacy. To evaluate whether NRH was also susceptible to degradation to NAM, we spiked NRH or NR in isolated mouse plasma. […] We also tested the stability of NRH in other matrixes. […] Finally, we also certified NRH stability in water (pH=7, at room temperature) for 48 h.

[2] = Tissue NRH levels in mice after oral gavage (LC-MS); type: in vivo; conditions: oral gavage 250 mg/kg (stable isotope-labelled NRH), 2 hours
Description: 8 week-old C57BI/6NTac mice were orally gavaged with either saline (as vehicle), and an stable isotope-labelled NRH (250 mg/kg). After 2 hours, pancreas NRH levels were evaluated. All results are expressed as mean+/−SEM of n=4 mice per group, as areas under the signal by LC-MS analysis, corrected by total protein amount of tissue.
8 week-old C57BI/6NTac mice were orally gavaged with either saline (as vehicle), and NRH (250 mg/kg). After 2 hours, liver, skeletal muscle and kidney NRH levels were evaluated. All results are expressed as mean+/−SEM of n=4 mice per group, as areas under the signal by LC-MS analysis, corrected by total protein amount of tissue.
Levels of NRH and other NAD-related metabolites in biological samples were obtained by using a cold liquid-liquid extraction using a mixture of methanol:water:chloroform in 5:3:5 (v/v), from which the polar phase was recovered for hydrophilic interaction ultra-high performance liquid chromatography mass spectrometry (UHPLC-MS) analysis. The UHPLC consisted of a binary pump, a cooled autosampler, and a column oven (DIONEX Ultimate 3000 UHPLC+ Focused, Thermo Scientific), connected to a triple quadrupole spectrometer (TSQ Vantage, Thermo Scientific) equipped with a heated electrospray ionisation (H-ESI) source. […]

[3] = Plasma NRH, NR and NAM in mice after oral administration; type: in vivo
From the text: (§1) Levels of NRH and other NAD-related metabolites in biological samples were obtained by using a cold liquid-liquid extraction using a mixture of methanol:water:chloroform in 5:3:5 (v/v), from which the polar phase was recovered for hydrophilic interaction ultra-high performance liquid chromatography mass spectrometry (UHPLC-MS) analysis. The UHPLC consisted of a binary pump, a cooled autosampler, and a column oven (DIONEX Ultimate 3000 UHPLC+ Focused, Thermo Scientific), connected to a triple quadrupole spectrometer (TSQ Vantage, Thermo Scientific) equipped with a heated electrospray ionisation (H-ESI) source. Of each sample, 2 μL were injected into the analytical column (2.1 mm×150 mm, 5 μm pore size, 200 Å HILICON iHILIC®-Fusion(P)), guarded by a pre-column (2.1 mm×20 mm, 200 Å HILICON iHILIC®-Fusion(P) Guard Kit) operating at 35° C. The mobile phase (10 mM ammonium acetate at pH 9, A, and acetonitrile, B) was pumped at 0.25 mL/min flow rate over a linear gradient of decreasing organic solvent (0.5-16 min, 90-25% B), followed by re-equilibration for a total run time of 30 min. The MS operated in positive mode at 3500 V with multiple reaction monitoring (MRM). The software Xcalibur v4.1.31.9 (Thermo Scientific) was used for instrument control, data acquisition and processing. Retention time and mass detection was confirmed by authentic standards.
Oral administration of NRH led to very similar results to those observed after IP administration. […] NRH was detectable in plasma 1 h after oral administration. In contrast, NR levels were undetectable at 1 h after NR administration.

[4] = tested on: mice; assay: Pancreas NAD+ levels in mice after intraperitoneal administration; type: in vivo; conditions: I.P. 500 mg/kg, after 1 hour
Description: 8 week-old C57BI/6NTac mice were intraperitoneally administered with either saline (as vehicle) or NRH (500 mg/kg). After 1 hour, pancreas NAD+ was measured using commercial kits. All results are expressed as mean+/−SEM of n=4 mice per group, corrected by weight of tissue.

[5] = tested on: C2C12 myotubes; assay: NAD+ levels in C2C12 myotubes after NRH treatment; type: cell-based
[6] = Circulating NRH, NR and NAM in mice after intraperitoneal injection; type: in vivo
From the text: as §1
The above results prompted us to test whether NRH could act as an effective NAD+ precursor in vivo. For this, we first intraperitoneally (IP) injected mice with either NR or NRH (500 mg/kg). […] Importantly, NRH was detectable in circulation after IP injection.

[7] = tested on: INS-1E cells; assay: Lipotoxicity (palmitic acid)-induced pancreatic β-cell death, cell viability; type: cell-based; conditions: palmitic acid 0.4 mM, 24 hours, NRH 0.1 mM
Description: INS-1E cells were treated with BSA-conjugated palmitic acid (0.4 mM) for 24 hrs in the presence or absence of NRH (0.1 mM). PBS was used as vehicle for NRH, while fatty-acid free BSA was used as control for palmited treatment. After 24 hrs, cell viability was evaluated by luminescence using a commercial kit (Cell Title-Glow; Promega). All results are expressed as mean+/−SEM of n=8 experiments. * indicates P<0.05 vs. the respective vehicle treated group.
INS-1E cells were treated with BSA-conjugated palmitic acid (0.4 mM) for 24 hours in the presence or absence of NRH (0.1 mM). PBS was used as vehicle for NRH, while fatty-acid free BSA was used as control for palmited treatment. After 24 hours, cell viability was evaluated by luminescence using a commercial kit (Cell Title-Glow; Promega).

[8] = Stability of NRH or NR spiked in isolated mouse plasma; type: in vitro ADME
From the text: as §1

[9] = tested on: AML12 hepatocytes; assay: Intracellular NAD+ levels in AML12 hepatocytes treated with NRH or NR; type: cell-based
Description: Even at such relatively low dose, NRH achieved similar increases in intracellular NAD+ levels to those reached with NR at 50-fold higher concentrations.
NRH actions were also extremely fast (FIG. 3), as significant increases in NAD+ levels were observed within 5 minutes after NRH treatment.

[10] = tested on: primary hepatocytes from control or NRK1 knockout (NRK1KO) mice; assay: NAD+ levels in primary hepatocytes from control or NRK1 knockout mice; type: cell-based; conditions: 1 hour of treatment
From the text: The action of NRH was also NAMPT-independent, based on experiments using FK866, a NAMPT inhibitor. If NRH led to NAD+ synthesis via the formation of NMNH, this hypothetical path would require the phosphorylation of NRH into NMNH. Given the essential and rate-limiting role of NRK1 in NR phosphorylation, we wondered whether the ability of NRH to boost NAD+ levels was NRK1 dependent. To answer this question, we evaluated NRH action in primary hepatocytes from either control or NRK1 knockout (NRK1KO) mice. […] Further, they rule out the possibility that NRH-induced NAD+ […] is driven by NRH oxidation into NR.

[11] = tested on: 3T3 fibroblasts; assay: NAD+ levels in 3T3 fibroblasts after NRH treatment; type: cell-based

## NC(=O)C1=CN([C@@H]2O[C@H](CO)[C@@H](O)[C@H]2O)C=CC1 [NRH]
[1]
  Stability in water, duration: 48 h
[2]
  NRH levels in pancreas: high levels
[3]; mice, after oral gavage
  NRH concentration in plasma: 11.16 ± 1.74 µM
[3]; mouse, in vivo, po
  Administered compound in plasma: detectable
[4]
  NAD+ levels in the pancreas: efficiently increases NAD+ levels
[5]
  NAD+ levels: highly elevated
[6]; mice, IP 500 mg/kg
  NAM levels in circulation: only a very mild increase
[6]; mouse, in vivo, ip
  NR in circulation: much higher levels than those detected after NR injection itself
  NRH in circulation: detectable
[7]
  Cell viability under BSA-conjugated palmitic acid: protects against lipotoxicity-induced pancreatic β-cell death
[8]; 2 h of incubation
  Compound levels in isolated mouse plasma: remained stable
  Generation of NAM in isolated mouse plasma: not generated; also recorded: did not significantly alter NAM levels
[8]; NRH incubation in isolated plasma
  NR production in isolated plasma: did not lead to NR production
[9]; AML12 hepatocytes
  Ability to increase intracellular NAD+ compared with NR: superior to that of NR
  Concentration range of maximal effects on NAD+ synthesis: around the millimolar range
[9]; AML12 hepatocytes (FIG. 3)
  Time after treatment at which significant increases in NAD+ levels were observed: ≤ 5 min
[9]; AML12 hepatocytes, NRH 10 μM vs NR
  Fold higher NR concentration needed for similar increase in intracellular NAD+ as NRH at 10 μM: 50 fold
[9]; AML12 hepatocytes, around the millimolar range
  Increase of intracellular NAD+ levels at maximal effect: more than 10 fold
[9]; AML12 hepatocytes, dose-response (FIG. 2)
  Concentration at which NAD+ levels are significantly increased: 10 µM
[10]
  NAD+ levels in NRK1KO derived primary hepatocytes: not affected by NRK1 deficiency
[11]
  NAD+ levels: highly elevated
